According to patent US20250304535A1, “KAT6 Inhibitors” (BeiGene Switzerland GmbH, priority 2024, published 2025):

Tests used:
[1] = target: Recombinant human KAT6A protein (497-780) (Homo sapiens (Human), UniProt Q92794); experiment: KAT6A biochemical TR-FRET assay; details: histone H4 peptide 2000 nM, AcCoA 300 nM, enzyme 5 nM
[2] = target: Recombinant human KAT6B protein (657-1069) (Homo sapiens (Human), UniProt Q8WYB5); experiment: KAT6B biochemical TR-FRET assay; details: histone H4 peptide 1000 nM, AcCoA 100 nM, enzyme 5 nM
[3] = system: histone H3K23 acetylation in U-2 OS cells; experiment: Histone H3 lysine 23 acetylation assay in U-2 OS cells (high content analysis); assay type: cell-based; details: 24 hrs exposure, H3K23ac level
Method in brief: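 U-2 OS cells seeded overnight, then exposed 24 h to a 9-point compound dilution series; 0.1% DMSO medium as blank. Fixed, permeabilised, stained with anti-H3K23ac plus Alexa Fluor 647 secondary and DAPI; nuclear H3K23ac intensity read by high-content imaging. Inhibition = mean per-well cell intensity relative to on-plate blanks.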

Recombinant human KAT6B protein (657-1069), sequence (Q8WYB5 657-1069): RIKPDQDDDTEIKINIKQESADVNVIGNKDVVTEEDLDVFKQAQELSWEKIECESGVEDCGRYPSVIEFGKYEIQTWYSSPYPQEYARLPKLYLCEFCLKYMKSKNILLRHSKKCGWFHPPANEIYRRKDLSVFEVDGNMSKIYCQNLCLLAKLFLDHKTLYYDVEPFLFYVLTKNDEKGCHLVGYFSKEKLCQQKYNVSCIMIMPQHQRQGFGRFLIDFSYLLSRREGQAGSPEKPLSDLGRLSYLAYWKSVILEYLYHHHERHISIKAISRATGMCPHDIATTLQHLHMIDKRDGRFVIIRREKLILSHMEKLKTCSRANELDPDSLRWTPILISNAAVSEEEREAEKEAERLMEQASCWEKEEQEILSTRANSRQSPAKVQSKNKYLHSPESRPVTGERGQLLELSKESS
Recombinant human KAT6A protein (497-780), sequence (Q92794 497-780): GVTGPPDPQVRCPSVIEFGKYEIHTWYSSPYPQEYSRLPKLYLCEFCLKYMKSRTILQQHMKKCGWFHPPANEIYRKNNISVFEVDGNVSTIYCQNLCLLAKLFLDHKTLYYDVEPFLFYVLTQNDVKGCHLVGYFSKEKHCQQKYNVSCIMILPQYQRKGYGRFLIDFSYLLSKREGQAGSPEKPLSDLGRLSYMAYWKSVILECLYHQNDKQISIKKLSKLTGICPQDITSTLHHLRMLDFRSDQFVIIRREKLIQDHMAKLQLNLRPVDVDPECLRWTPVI

IC50 [1]	IC50 [2]	IC50 ([3]; Homo sapiens, U2OS)	IC50 [3]	Compound
≤ 5 nM	≤ 5 nM	≤ 10 nM		COCC(C)(C)c1ccc(OC)c(S(=O)(=O)NC(=O)c2ccc(Cn3cccn3)c(OC)n2)c1 [Example C57, 5-((1H-pyrazol-1-yl)methyl)-6-methoxy-N-((2-methoxy-5-(1-methoxy-2-methylpropan-2-yl)phenyl)sulfonyl)picolinamide]
≤ 5 nM	≤ 5 nM	≤ 10 nM		COc1ccc(C(C)(C)C)cc1S(=O)(=O)NC(=O)c1ccc(Cn2cccn2)c(C2CC2)c1 [Example C2, 4-((1H-pyrazol-1-yl)methyl)-N-((5-(tert-butyl)-2-methoxyphenyl)sulfonyl)-3-cyclopropylbenzamide]
≤ 5 nM	≤ 5 nM	≤ 10 nM		COc1ccc(C(C)(C)C)cc1S(=O)(=O)NC(=O)c1ccc(Cn2cccn2)c(C2CC2)n1 [Example C8, 5-((1H-pyrazol-1-yl)methyl)-N-((5-(tert-butyl)-2-methoxyphenyl)sulfonyl)-6-cyclopropyl-picolinamide]
≤ 5 nM	≤ 5 nM		≤ 10 nM	COc1cc(C(=O)NS(=O)(=O)c2nc(C(C)(C)C)ccc2OC)ccc1Cn1cc(N)cn1 [Example C38]
≤ 5 nM	≤ 5 nM	≤ 10 nM		COc1ccc(C(C)(C)C)nc1S(=O)(=O)NC(=O)c1ccc(Cn2cccn2)c(OC(F)F)c1 [Example C30, 4-((1H-pyrazol-1-yl)methyl)-N-((6-(tert-butyl)-3-methoxypyridin-2-yl)sulfonyl)-3-(difluoromethoxy)benzamide]
